Measurements from publication PMC9897758, “Computational prediction and in vitro analysis of the potential ligand binding site within the extracellular ATP receptor, P2K2” (Plant Signaling & Behavior, 2023).
Changes are numbered by the printed parent chain.

Legend:
Assay in all cases: radioligand binding, gel filtration separation of bound and free ATP, saturation fit
[1] = target: T1, P2K2 extracellular lectin domain (LecRK-I.5), GST-tagged (Arabidopsis thaliana, UniProt Q9M1G4, R144A)
T1 construct: gene LECRK15; extracellular lectin domain (ectodomain), GST fusion, purified from E. coli BL21-AI
T1 sequence (Q9M1G4 23-286 R144A limits assumed): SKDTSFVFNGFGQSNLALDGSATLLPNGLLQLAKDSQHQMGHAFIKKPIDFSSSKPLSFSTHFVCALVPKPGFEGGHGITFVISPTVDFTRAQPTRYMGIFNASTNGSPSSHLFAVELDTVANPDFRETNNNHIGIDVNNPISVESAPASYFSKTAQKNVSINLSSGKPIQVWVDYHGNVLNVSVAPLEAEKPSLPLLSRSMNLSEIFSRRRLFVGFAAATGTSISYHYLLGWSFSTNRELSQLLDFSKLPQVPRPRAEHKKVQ

[2] = target: T2, P2K2 extracellular lectin domain (LecRK-I.5), GST-tagged (Arabidopsis thaliana, UniProt Q9M1G4, H99A)
T2 construct: gene LECRK15; extracellular lectin domain (ectodomain), GST fusion, purified from E. coli BL21-AI
T2 sequence (Q9M1G4 23-286 H99A limits assumed): T1 sequence (Q9M1G4 23-286 R144A limits assumed) with H77A, A122R

[3] = target: T3, P2K2 extracellular lectin domain (LecRK-I.5), GST-tagged (Arabidopsis thaliana, UniProt Q9M1G4, S246A)
T3 construct: gene LECRK15; extracellular lectin domain (ectodomain), GST fusion, purified from E. coli BL21-AI
T3 sequence (Q9M1G4 23-286 S246A limits assumed): T1 sequence (Q9M1G4 23-286 R144A limits assumed) with A122R, S224A

[4] = target: T4, P2K2 extracellular lectin domain (LecRK-I.5), GST-tagged (Arabidopsis thaliana, UniProt Q9M1G4)
T4 construct: gene LECRK15; extracellular lectin domain (ectodomain), GST fusion, purified from E. coli BL21-AI
T4 sequence (Q9M1G4 23-286 limits assumed): T1 sequence (Q9M1G4 23-286 R144A limits assumed) with A122R

[5] = target: T5, P2K2 extracellular lectin domain (LecRK-I.5), GST-tagged (Arabidopsis thaliana, UniProt Q9M1G4, T245A)
T5 construct: gene LECRK15; extracellular lectin domain (ectodomain), GST fusion, purified from E. coli BL21-AI
T5 sequence (Q9M1G4 23-286 T245A limits assumed): T1 sequence (Q9M1G4 23-286 R144A limits assumed) with A122R, T223A

Compound: Nc1ncnc2c1ncn2[C@@H]1O[C@H](COP(=O)(O)OP(=O)(O)OP(=O)(O)O)[C@@H](O)[C@H]1O [ATP]
- Kd [1]: 104 ± 25 nM
- Kd [2]: > 1000 nM
- Kd [3]: 109 ± 29.7 nM
- Kd [4]: 41.6 ± 13.8 nM
- Kd [5]: 41.7 ± 14.1 nM
